The values that follow come from patent US10633376B2, “Crystalline forms of JAK1-selective inhibitor, processes for preparation and use thereof” (Crystal Pharmaceutical (Suzhou) Co., Ltd., priority 2016, dated 2020).

For series [1] the following is noted: clinical trials by Gilead; cited from earlier work.
For series [2] the following is noted: 92.5% humidity for 5 days and 10 days, XRPD; cited from earlier work.
For series [3] the following is noted: prior art patents; cited from earlier work.
Series [4] in a line: Solubility comparison study, saturated solutions measured by HPLC. Format: physicochemical. Conditions: for Solubility in FaSSIF 1 h: FaSSIF pH=6.5, 1 h; for Solubility in FaSSIF 4 h: FaSSIF pH=6.5, 4 h; for Solubility in FaSSIF 24 h: FaSSIF pH=6.5, 24 h. As for the experimental part: Saturated solutions of Form CS1, Form CS2 of the present disclosure and Pattern 4 in patent CN105960407A (hereinafter referred to as patent Pattern 4) were prepared in SGF (simulated gastric fluids), FeSSIF (fed state simulated intestinal fluids, pH=5.0), FaSSIF (fasted state simulated intestinal fluids, pH=6.5) and pure water. After equilibrated for 1 h, 4 h and 24 h, concentrations of the saturated solutions were measured by HPLC.

Series [5] can be described thus: Stability study of crystalline form on storage, XRPD. It counts as physicochemical. Conditions: 3 weeks. As for the experimental part:
Form CS1 of the present disclosure was stored under 25° C./60% RH and 40° C./75% RH for 3 weeks. Form CS2 of the present disclosure was stored under 25° C./60% RH, 40° C./75% RH and 60° C./75% RH for 3 weeks.

A short description of series [6]: Mechanical stability study, XRPD before and after grinding. Format: physicochemical. The source says: XRPD was applied to test the crystalline forms of Form CS2, Form CS3 and Pattern 4 in patent CN105960407A before and after grinding. The test results were shown in FIG. 20, FIG. 21 and FIG. 22.
Series [7] is described as follows: Hygroscopicity by dynamic vapor sorption (DVS). Format: physicochemical. The method, then: Dynamic Vapor Sorption (DVS) is measured via a SMS (Surface Measurement Systems Ltd.) intrinsic DVS instrument. Its control software is DVS-Intrinsic control software, and its analysis software is DVS-Intrinsic Analsis software. Typical Parameters for DVS test are as follows:
Gas and flow rate: N2, 200 mL/min
RH range: 0% RH to 95% RH
Dynamic vapor sorption (DVS) was applied to test hygroscopicity of Form CS2 and Pattern 4 in patent CN105960407A (hereinafter referred to as patent Pattern 4) on about 10 mg of samples. The weight gains at each relative humidity were recorded in a cycle of 0-95%-0 RH.

SMILES strings stand for the structures. ≈ marks a conversion by molar mass, not a printed value. Entries after “also recorded” stand apart in the source; their conditions may differ. Where two headings read alike, the source gives them in different places.

As to `O=C(Nc1nc2cccc(-c3ccc(CN4CCS(=O)(=O)CC4)cc3)n2n1)C1CC1` [Filgotinib, N-[5-[4-[(1,1-dioxo-1-thiomorpholin-4-yl)methyl]phenyl][1,2,4]triazolo [1,5-a]pyridin-2-yl]cyclopropanecarboxamide], the “Anemia and abnormal increase in low density lipoprotein (LDL)” value in series [1] was “does not cause an anemia and abnormal increase in low density lipoprotein (LDL)”.
In the case of `O=C(Nc1nc2cccc(-c3ccc(CN4CCS(=O)(=O)CC4)cc3)n2n1)C1CC1` [Form B of free form], the Stability entry in series [2] is on record as “Stability is poor. Sample was tested by XRPD after being”. Also, in series [3], the Solubility in water entry is listed as “The solubility in water is 41.28 μg/mL. The yield is low,”.
As to `O=C(Nc1nc2cccc(-c3ccc(CN4CCS(=O)(=O)CC4)cc3)n2n1)C1CC1` [Form C of free form], in series [2], the Stability entry is on record as “Stability is poor. Sample was tested by XRPD after being”. In series [3], the Solubility in water result was “The solubility in water is 42.22 μg/mL. The yield is low”.
For the compound `O=C(Nc1nc2cccc(-c3ccc(CN4CCS(=O)(=O)CC4)cc3)n2n1)C1CC1` [Form CS1], in series [4], the “Solubility in FaSSIF 1 h” value was found to be 120 µg/mL (≈ 282 µM), the “Solubility in FaSSIF 4 h” value is 110 µg/mL (≈ 259 µM) and the “Solubility in FaSSIF 24 h” value turned out to be 120 µg/mL (≈ 282 µM). Besides, in series [4] (SGF (pH=1.8)), the “Solubility in SGF 1 h” value was determined as 3230 µg/mL (≈ 7590 µM). The “Solubility in SGF 4 h” value in series [4] (SGF (pH=1.8), 4 h) is 3300 µg/mL (≈ 7760 µM). In series [4] (SGF (pH=1.8), 24 h), the “Solubility in SGF 24 h” value worked out at 820 µg/mL (≈ 1930 µM). The compound also came in with a solubility at 1 h in series [4] (fed state simulated intestinal fluid (FeSSIF), pH 5, fessif, thermodynamic from solid, FeSSIF pH=5.0, 1 h) of 200 µg/mL (≈ 470 µM). Besides, the solubility at 4 h in series [4] (fed state simulated intestinal fluid (FeSSIF), pH 5, fessif, thermodynamic from solid, FeSSIF pH=5.0, 4 h, read-out: Solubility in FeSSIF 4 h) is 200 µg/mL (≈ 470 µM). In addition, the solubility at 24 h in series [4] (fed state simulated intestinal fluid (FeSSIF), pH 5, fessif, thermodynamic from solid, FeSSIF pH=5.0, 24 h, read-out: Solubility in FeSSIF 24 h) was 250 µg/mL (≈ 588 µM). Besides, the “Solubility in water 1 h” value in series [4] (pure water) came out at 120 µg/mL (≈ 282 µM). Further, in series [4] (pure water, 4 h), the “Solubility in water 4 h” value was found to be 90 µg/mL (≈ 212 µM). The “Solubility in water 24 h” value in series [4] (pure water, 24 h) turned out to be 210 µg/mL (≈ 494 µM). Besides, the Solid form change result in series [5] (25° C./60% RH) was “doesn't change; also recorded: No form change of Form CS1”. In addition, the Solid form change entry in series [5] (40° C./75% RH) is recorded as “doesn't change; also recorded: No form change of Form CS1”.
Consider `O=C(Nc1nc2cccc(-c3ccc(CN4CCS(=O)(=O)CC4)cc3)n2n1)C1CC1` [Form CS2], for which the “Mechanical stability (crystalline form after grinding)” value in series [6] is reported as “better mechanical stabilities; also recorded: don't change after grinding; also recorded: without crystal transformation observed during grinding”. The “Solubility in FaSSIF 1 h” value in series [4] came to 50 µg/mL (≈ 118 µM). For the same compound, the “Solubility in FaSSIF 4 h” value in series [4] was 50 µg/mL (≈ 118 µM). Also, the “Solubility in FaSSIF 24 h” value in series [4] was determined as 40 µg/mL (≈ 94 µM). Besides, the “Solubility in FeSSIF 1 h” value in series [4] (FeSSIF pH=5.0, 1 h) stood at 90 µg/mL (≈ 212 µM). Also, in series [4] (FeSSIF pH=5.0, 4 h), the “Solubility in FeSSIF 4 h” value stood at 100 µg/mL (≈ 235 µM). Moreover, in series [4] (FeSSIF pH=5.0, 24 h), the “Solubility in FeSSIF 24 h” value worked out at 80 µg/mL (≈ 188 µM). Also, the “Solubility in SGF 1 h” value in series [4] (SGF (pH=1.8)) is 1310 µg/mL (≈ 3080 µM). Further, the “Solubility in SGF 4 h” value in series [4] (SGF (pH=1.8), 4 h) was determined as 1320 µg/mL (≈ 3100 µM). In series [4] (pure water), the “Solubility in water 1 h” value was 40 µg/mL (≈ 94 µM). Further, the “Solubility in water 24 h” value in series [4] (pure water, 24 h) was found to be 40 µg/mL (≈ 94 µM). For the same compound, the solubility at 4 h in series [4] (pure water, water, thermodynamic from solid, pure water, 4 h, read-out: Solubility in water 4 h) worked out at 40 µg/mL (≈ 94 µM). For the same compound, the solubility at 24 h in series [4] (simulated gastric fluid (SGF), pH 1.8, simulated gastric fluid, thermodynamic from solid, SGF (pH=1.8), 24 h, read-out: Solubility in SGF 24 h) was 560 µg/mL (≈ 1320 µM). In series [7] (80% RH, Chinese Pharmacopoeia 2015 definition), the Hygroscopicity class entry was “almost non-hygroscopic; also recorded: almost no hygroscopic”. Also, the “Form change after DVS” value in series [7] (XRPD before and after DVS cycle 0-95%-0 RH) is on record as “no form change was observed”. The Solid form change entry in series [5] (25° C./60% RH), in series [5] (40° C./75% RH) and in series [5] (60° C./75% RH) was “doesn't change; also recorded: No form change of Form CS2” in each case.
`O=C(Nc1nc2cccc(-c3ccc(CN4CCS(=O)(=O)CC4)cc3)n2n1)C1CC1` [Form D of free form]: the Stability entry in series [2] is reported as “Stability is poor. XRPD is tested after being placed at”. Moreover, the Solubility in water entry in series [3] was “solubility in water is 55.26 μg/mL. The yield is low and is”.
In the case of `O=C(Nc1nc2cccc(-c3ccc(CN4CCS(=O)(=O)CC4)cc3)n2n1)C1CC1` [Form E of free form], the Stability entry in series [2] is given as “Stability is poor. XRPD is tested after being placed at”.
For `O=C(Nc1nc2cccc(-c3ccc(CN4CCS(=O)(=O)CC4)cc3)n2n1)C1CC1` [Form F of free form], the Solubility in water entry in series [3] was “The solubility is low. The solubility in water is 50.98 μg/mL”.
`O=C(Nc1nc2cccc(-c3ccc(CN4CCS(=O)(=O)CC4)cc3)n2n1)C1CC1` [Form H of free form]: the Solubility in water result in series [3] is reported as “solubility in water is 12.77 μg/mL”.
Take `O=C(Nc1nc2cccc(-c3ccc(CN4CCS(=O)(=O)CC4)cc3)n2n1)C1CC1` [Pattern 4, reference compound]: the “Mechanical stability (crystalline form after grinding)” value in series [6] is given as “poor mechanical stability”. Besides, in series [4] (listed as Patent Pattern 4), the “Solubility in FaSSIF 1 h” value was 20 µg/mL (≈ 47 µM), the “Solubility in FaSSIF 4 h” value came out at 20 µg/mL (≈ 47 µM) and the “Solubility in FaSSIF 24 h” value was found to be 20 µg/mL (≈ 47 µM). In addition, the “Solubility in FeSSIF 1 h” value in series [4] (FeSSIF pH=5.0, 1 h, listed as Patent Pattern 4) stood at 30 µg/mL (≈ 70.5 µM). The “Solubility in FeSSIF 4 h” value in series [4] (FeSSIF pH=5.0, 4 h, listed as Patent Pattern 4) stood at 30 µg/mL (≈ 70.5 µM). Further, the “Solubility in FeSSIF 24 h” value in series [4] (FeSSIF pH=5.0, 24 h, listed as Patent Pattern 4) was 30 µg/mL (≈ 70.5 µM). In series [4] (SGF (pH=1.8), listed as Patent Pattern 4), the “Solubility in SGF 1 h” value came to 1020 µg/mL (≈ 2400 µM). Moreover, the “Solubility in SGF 4 h” value in series [4] (SGF (pH=1.8), 4 h, listed as Patent Pattern 4) came to 1070 µg/mL (≈ 2510 µM). The “Solubility in SGF 24 h” value in series [4] (SGF (pH=1.8), 24 h, listed as Patent Pattern 4) came out at 460 µg/mL (≈ 1080 µM). Also, the “Solubility in water 1 h” value in series [4] (pure water, listed as Patent Pattern 4) is 20 µg/mL (≈ 47 µM). Moreover, the “Solubility in water 4 h” value in series [4] (pure water, 4 h, listed as Patent Pattern 4) stood at 10 µg/mL (≈ 23.5 µM). The “Solubility in water 24 h” value in series [4] (pure water, 24 h, listed as Patent Pattern 4) stood at 10 µg/mL (≈ 23.5 µM).

What is called solubility is the dissolved amount per volume that the medium holds.
